Measured values as given in ChEMBL document CHEMBL5120851, “Discovery of indirubin-3'-aminooxy-acetamide derivatives as potent and selective FLT3/D835Y mutant kinase inhibitors for acute myeloid leukemia” (Eur J Med Chem, 2022).

Key:
[1] = molecular target: T1, Receptor-type tyrosine-protein kinase FLT3 (Homo sapiens, UniProt P36888); assay: Inhibition of human recombinant His-tagged FLT3 kinase domain (564 to 958 residues) expressed in baculovirus expression system incubated for 30 mins in presence of ATP by HTRF analysis
T1 sequence (P36888 whole entry): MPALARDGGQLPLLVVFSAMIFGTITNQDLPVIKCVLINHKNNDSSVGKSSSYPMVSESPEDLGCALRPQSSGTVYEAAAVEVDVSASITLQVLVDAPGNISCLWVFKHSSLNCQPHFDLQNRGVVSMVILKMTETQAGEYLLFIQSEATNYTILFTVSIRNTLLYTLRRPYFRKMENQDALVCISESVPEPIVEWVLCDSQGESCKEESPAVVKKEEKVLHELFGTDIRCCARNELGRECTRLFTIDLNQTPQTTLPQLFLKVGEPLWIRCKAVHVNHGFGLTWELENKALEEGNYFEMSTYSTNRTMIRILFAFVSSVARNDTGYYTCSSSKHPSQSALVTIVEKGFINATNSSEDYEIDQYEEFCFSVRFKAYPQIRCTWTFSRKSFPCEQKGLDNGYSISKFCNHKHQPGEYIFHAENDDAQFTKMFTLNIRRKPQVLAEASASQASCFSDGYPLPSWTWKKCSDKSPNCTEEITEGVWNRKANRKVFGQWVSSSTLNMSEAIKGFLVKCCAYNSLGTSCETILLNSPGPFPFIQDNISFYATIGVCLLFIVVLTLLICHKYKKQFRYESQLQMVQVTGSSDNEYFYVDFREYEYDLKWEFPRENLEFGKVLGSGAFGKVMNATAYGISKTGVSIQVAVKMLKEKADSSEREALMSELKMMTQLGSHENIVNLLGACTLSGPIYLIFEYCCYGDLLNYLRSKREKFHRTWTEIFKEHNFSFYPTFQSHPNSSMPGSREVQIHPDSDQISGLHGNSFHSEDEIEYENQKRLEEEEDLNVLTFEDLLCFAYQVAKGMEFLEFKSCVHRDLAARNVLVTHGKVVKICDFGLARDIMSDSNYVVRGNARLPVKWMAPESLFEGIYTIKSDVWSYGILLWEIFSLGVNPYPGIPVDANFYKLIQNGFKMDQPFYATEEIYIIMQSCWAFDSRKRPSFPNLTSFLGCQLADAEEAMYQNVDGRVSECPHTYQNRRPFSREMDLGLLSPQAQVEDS

[2] = molecular target: Receptor-type tyrosine-protein kinase FLT3 (Homo sapiens, UniProt P36888, D835Y); assay: Inhibition of human recombinant His-tagged FLT3/D835Y mutant expressed in baculovirus expression system incubated for 30 mins in presence of ATP by HTRF analysis
[3] = system: MV4-11; assay: Antiproliferative activity against human MV4-11 cells assessed as inhibition of cell growth incubated for 72 hrs by EZ-Cytox colorimetric assay; format: functional
[4] = system: MOLM-14; assay: Antiproliferative activity against human MOLM-14 cells assessed as inhibition of cell growth incubated for 72 hrs by EZ-Cytox colorimetric assay; format: functional
[5] = system: MOLM-14; assay: Antiproliferative activity against human MOLM-14 cells harboring FLT3 ITD/D835Y double mutant assessed as inhibition of cell growth incubated for 72 hrs by EZ-Cytox colorimetric assay; format: functional
[6] = system: MOLM-14; assay: Antiproliferative activity against human MOLM-14 cells harboring FLT3 ITD/F691L double mutant assessed as inhibition of cell growth incubated for 72 hrs by EZ-Cytox colorimetric assay; format: functional
[7] = AUClast in ICR mouse at 10 mg/kg, iv measured upto 24 hrs; format: ADME, organism-based; set-up: time < 24 hrs, dose 10 mg/kg, route iv; settings: in vivo
[8] = Clearance in ICR mouse at 10 mg/kg, iv measured upto 24 hrs; format: ADME, organism-based; settings: in vivo
[9] = Volume of distribution at steady state in ICR mouse at 10 mg/kg, iv measured upto 24 hrs; format: ADME, organism-based; settings: in vivo, read-out: Vdss
[10] = Half life in ICR mouse at 10 mg/kg, iv measured upto 24 hrs; format: ADME, organism-based; settings: in vivo
[11] = system: BaF3; assay: Antiproliferative activity against mouse BaF3 cells harboring FLT3 ITD mutant assessed as inhibition of cell growth incubated for 72 hrs by EZ-Cytox colorimetric assay; format: functional
[12] = system: BaF3; assay: Antiproliferative activity against mouse BaF3 cells harboring FLT3 ITD/D835Y double mutant assessed as inhibition of cell growth incubated for 72 hrs by EZ-Cytox colorimetric assay; format: functional
[13] = system: BaF3; assay: Antiproliferative activity against mouse BaF3 cells harboring FLT3 ITD/F691L double mutant assessed as inhibition of cell growth incubated for 72 hrs by EZ-Cytox colorimetric assay; format: functional
[14] = system: Huh-7; assay: Antiproliferative activity against human Huh-7 cells assessed as inhibition of cell growth incubated for 72 hrs by EZ-Cytox colorimetric assay; format: functional
[15] = system: HepG2; assay: Antiproliferative activity against human HepG2 cells assessed as inhibition of cell growth at 1 uM incubated for 72 hrs by EZ-Cytox colorimetric assay relative to control; format: functional
[16] = system: K562; assay: Antiproliferative activity against human K562 cells assessed as inhibition of cell growth at 1 uM incubated for 72 hrs by EZ-Cytox colorimetric assay relative to control; format: functional
[17] = system: A549; assay: Antiproliferative activity against human A549 cells assessed as inhibition of cell growth at 1 uM incubated for 72 hrs by EZ-Cytox colorimetric assay relative to control; format: functional
[18] = system: MDA-MB-231; assay: Antiproliferative activity against human MDA-MB-231 cells assessed as inhibition of cell growth at 1 uM incubated for 72 hrs by EZ-Cytox colorimetric assay relative to control; format: functional
[19] = system: HCT-116; assay: Antiproliferative activity against human HCT-116 cells assessed as inhibition of cell growth at 1 uM incubated for 72 hrs by EZ-Cytox colorimetric assay relative to control; format: functional
[20] = system: PC-3; assay: Antiproliferative activity against human PC-3 cells assessed as inhibition of cell growth at 1 uM incubated for 72 hrs by EZ-Cytox colorimetric assay relative to control; format: functional

Row | SMILES | IC50 [1] [nM] | IC50 [2] [nM] | GI50 [3] [nM] | GI50 [4] [nM] | GI50 [5] [nM] | other results
1 | CN1CC[C@H](NC(=O)CO/N=C2/C(=C3/C(=O)Nc4ccccc43)Nc3ccccc32)C1 | 2.01 | 1.91 | 6.12 | 22.1 | 21.1 | –
2 | Cl.O=C(CO/N=C1/C(=C2/C(=O)Nc3ccccc32)Nc2ccccc21)N[C@@H]1CCNC1 | 0.29 | 0.2 | 0.52 | 2.73 | 3.49 | GI50 [6]: 3.23 nM; AUC(0-t) at 24 h [7]: 367 ng·h/mL; clearance [8]: 323 mL/min/kg; Vd [9]: 103 L/kg; half-life [10]: 3.7 h
3 | O=C1Nc2ccc(F)cc2/C1=C1/Nc2ccccc2/C1=N\OCCN1CCNCC1 | – | – | 3.69 | 25.3 | 23.1 | GI50 [6]: 75.6 nM
4 | O=C(CO/N=C1/C(=C2/C(=O)Nc3ccccc32)Nc2ccccc21)NC1CNC1 | 4.95 | 3.25 | 4.95 | 19.6 | 22.3 | –
5 | NC1CCN(C(=O)CO/N=C2/C(=C3/C(=O)Nc4ccc(F)cc43)Nc3ccccc32)CC1 | 2.54 | 3.45 | 9.76 | 36.7 | 28.1 | –
6 | O=C1Nc2ccc(OC(F)(F)F)cc2/C1=C1/Nc2ccccc2/C1=N\OCC(=O)N1CCNCC1 | 3.65 | 1.62 | 27.4 | 71.9 | 87.5 | –
7 | CN1CC[C@@H](NC(=O)CO/N=C2/C(=C3/C(=O)Nc4ccccc43)Nc3ccccc32)C1 | 1.4 | 2.19 | 10.5 | 30.2 | 28.6 | –
8 | COc1ccc2c(c1)/C(=C1/Nc3ccccc3/C1=N\OCC(=O)N1CCNCC1)C(=O)N2 | 1.66 | 1.61 | 8.39 | 40.4 | 36.4 | –
9 | O=C(CO/N=C1/C(=C2/C(=O)Nc3ccccc32)Nc2ccccc21)NC1CCNCC1 | 2.02 | 1.12 | 7.01 | 25.6 | 23.8 | –
10 | O=C1Nc2ccc(Cl)cc2/C1=C1/Nc2ccccc2/C1=N\OCC(=O)N1CCNCC1 | 0.27 | 0.2 | 0.76 | 7.22 | 12.7 | –
11 | NC1CCN(C(=O)CO/N=C2/C(=C3/C(=O)Nc4ccccc43)Nc3ccccc32)CC1 | 2.07 | 3.07 | 17.3 | 48.6 | 38.9 | –
12 | O=C1Nc2ccc(F)cc2/C1=C1/Nc2ccccc2/C1=N\OCCS(=O)(=O)N1CCNCC1 | > 50 | > 50 | 842 | – | – | –
13 | O=C1Nc2ccccc2/C1=C1/Nc2ccccc2/C1=N\OCCC(=O)N1CCNCC1 | – | 2.89 | – | – | – | –
14 | O=C1Nc2ccc(F)cc2/C1=C1/Nc2ccccc2/C1=N\OCCC(=O)N1CCNCC1 | 1.23 | 3.41 | 29.5 | 111 | 112 | –
15 | O=C1Nc2ccc(Br)cc2/C1=C1/Nc2ccccc2/C1=N\OCC(=O)N1CCNCC1 | 0.67 | 0.22 | 1.27 | 13.9 | 16.1 | –
16 | O=C(CO/N=C1/C(=C2/C(=O)Nc3ccccc32)Nc2ccccc21)N[C@H]1CCNC1 | 0.64 | 0.2 | 0.68 | 5.35 | 4.88 | GI50 [6]: 10.7 nM

Row | SMILES | IC50 [1] [nM] | IC50 [2] [nM] | GI50 [3] [nM] | GI50 [4] [nM] | GI50 [5] [nM] | other results
17 | CCc1nc(C(N)=O)c(Nc2ccc(N3CCC(N4CCN(C)CC4)CC3)c(OC)c2)cc1NC1CCOCC1 | – | – | 8.2 | 35.4 | 19.4 | GI50 [6]: 70.1 nM; GI50 [11]: 1.9 nM; GI50 [12]: 2.45 nM; GI50 [13]: 38 nM; GI50 [14]: 435 nM; inhibition at 1 µM [15]: 46.9%; inhibition at 1 µM [16]: 74.6%; inhibition at 1 µM [17]: 4.31%; inhibition at 1 µM [18]: 42.1%; inhibition at 1 µM [19]: 47.7%; inhibition at 1 µM [20]: 44.3%
18 | CN1CCC(NC(=O)CO/N=C2/C(=C3/C(=O)Nc4ccccc43)Nc3ccccc32)CC1 | 15.8 | 53.5 | 43.6 | 133 | 56.3 | –
19 | NC1CCN(C(=O)CO/N=C2/C(=C3/C(=O)Nc4ccc(Cl)cc43)Nc3ccccc32)CC1 | 1.82 | 1.34 | 10.5 | 40.3 | 43.2 | –
20 | O=C1Nc2ccc(F)cc2/C1=C1/Nc2ccccc2/C1=N\OCC(=O)N1CCNCC1 | 0.29 | 0.18 | 1.23 | 7.17 | 7.13 | –
21 | CN1CCN(C(=O)CO/N=C2/C(=C3/C(=O)Nc4ccc(Cl)cc43)Nc3ccccc32)CC1 | 1.3 | 0.39 | 18.3 | 103 | 59.1 | –
22 | CN1CCN(C(=O)CO/N=C2/C(=C3/C(=O)Nc4ccc(F)cc43)Nc3ccccc32)CC1 | 0.93 | 0.35 | 6.49 | 28 | 26.1 | –
23 | CN1CCC(NC(=O)CO/N=C2/C(=C3/C(=O)Nc4ccc(F)cc43)Nc3ccccc32)CC1 | 7.31 | 14.3 | 38.7 | 75.9 | 60.6 | –
24 | CN1CCN(C(=O)CO/N=C2/C(=C3/C(=O)Nc4ccccc43)Nc3ccccc32)CC1 | 1.17 | 0.52 | 12.2 | 27.8 | 23.5 | –
25 | CN1CC(NC(=O)CO/N=C2/C(=C3/C(=O)Nc4ccccc43)Nc3ccccc32)C1 | 0.79 | 0.75 | 2.61 | 17.4 | 17.9 | –
26 | O=C1Nc2ccccc2/C1=C1/Nc2ccccc2/C1=N\OCS(=O)(=O)N1CCNCC1 | – | 3.78 | – | – | – | –
27 | O=C(CO/N=C1/C(=C2/C(=O)Nc3ccc(Cl)cc32)Nc2ccccc21)NC1CCNCC1 | 1.18 | 1.08 | 1.08 | 8.56 | 35.1 | –
28 | O=C(CO/N=C1/C(=C2/C(=O)Nc3ccc(F)cc32)Nc2ccccc21)NC1CCNCC1 | 2.62 | 2.16 | 3.27 | 18.6 | 25.8 | –
29 | O=C1Nc2ccc(I)cc2/C1=C1/Nc2ccccc2/C1=N\OCC(=O)N1CCNCC1 | 0.8 | 0.45 | 3.72 | 23.7 | 20.9 | –
30 | CN1CCC(NC(=O)CO/N=C2/C(=C3/C(=O)Nc4ccc(Cl)cc43)Nc3ccccc32)CC1 | 15 | 21.2 | 16.2 | 67 | 123 | –
31 | O=C1Nc2ccc(F)cc2/C1=C1/Nc2ccccc2/C1=N\OCS(=O)(=O)N1CCNCC1 | 3.29 | 2.71 | 9.58 | 46.2 | 30.8 | –
